Assay results reported in patent US20100022481A1, “Drug Carriers, Their Synthesis, and Methods of Use Thereof” (priority 2006, published 2010).

Experiments:
rat mandible = test: Bilateral rat mandible model, bone growth and inflammation, histomorphometry; assay type: in vivo, Female Sprague Dawley rats; settings: for New Bone Area (mm^2 ± SEM) / New Bone Width-1 (mm ± SEM) / New Bone Width-3 (mm ± SEM): Table 1, pairs tested on contralateral sides; for new bone growth / bone anabolic effect (in words): one injection at rat mandible
Description: Specifically, a bilateral rat mandible model was used with test and control samples on contralateral sides. […] The rats were euthanized at 24 days and evaluated histomorphometrically at 24 days.

[1] = Binding potential of ALN-CD on HA; settings: rhodamine B label; 10 minutes with HA at room temperature, washed with H2O 5-10 times
Protocol: 20 mg rhodamine B labeled ALN-CD or CD and 1 mg rhodamine B were dissolved in 0.5 ml water separately, and 100 mg of hydroxyapatite (HA) was added. The mixture was then allowed to stir gently for 10 minutes at room temperature. HA was recovered by centrifugation (10,000 rpm, 2 minutes), then washed with H2O 5-10 times to remove unbound compounds. The HA was allowed to dry under vacuum at room temperature.

[2] = Phase solubility of dexamethasone or PGE1 in the presence of ALN-CD
Protocol: The experiments were carried out in triplicate. Tubes containing the solutions were sealed and shaken at 25° C. for 3 days. Suspensions were then filtered using a syringe through 0.22 μm filter. The concentration of dexamethasone or PGE1 in the filtrate was determined by HPLC equipped with a UV detector. For dexamethasone, 10 μg/ml fluorometholone was used as the internal standard.
The conditions for detecting dexamethasone were as follows: chromatographic column: Agilent C18 reverse-phase (4.6×250 mm, 5 μm; Santa Clara, Calif.); mobile phase: acetonitrile-water (40:60, V/V) at a flow rate of 1 ml/min; UV detection at 240 nm.
The conditions for detecting PGE1 were as follows: chromatographic column: Agilent C18 reverse-phase (4.6×250 mm, 5 μm); mobile phase: acetonitrile-0.01M KH2PO4 (42:58, v/v) at a flow rate of 1 ml/minute; UV detection at 205 nm.

[3] = 50 μl of 400 mg/mL ALN-CD or 50 μl of 81 mg/ml ALN
[4] = one injection, contralateral sides, 24 days

With NCCCC(O)(P(=O)(O)O)P(=O)(O)O [alendronate] the “cases with new bone on distant areas of the mandible (e.g., the medial surface)” value (rat mandible; [3]) was 8 of 8, the “cases with new bone on the lateral surface of the mandible (location of injection)” value (rat mandible; [3]) was 5 of 8 and the “New Bone Area (mm^2 ± SEM)” value (rat mandible; 24 days) was 0.61 ± 0.12 mm^2. For the same compound, the “New Bone Width-1 (mm ± SEM)” value (rat mandible; 24 days) was 0.14 ± 0.05 mm, the “New Bone Width-3 (mm ± SEM)” value (rat mandible; 24 days) was 0.24 ± 0.11 mm and the new bone area (rat mandible; equivalent amounts of ALN: 50 μl of 400 mg/mL ALN-CD or 50 μl of 81 mg/ml ALN) was 0.61 ± 0.12 mm^2. The “new bone growth / bone anabolic effect (in words)” value (rat mandible; 24 days) was “moderate bone anabolic effect”.
In the case of CCN(CC)c1ccc2c(-c3ccccc3C(=O)O)c3ccc(=[N+](CC)CC)cc-3oc2c1.[Cl-] [rhodamine B], the “color of HA after washings (binding to the HA surface)” value [1] is reported as “disappeared”.
With CCCCC[C@H](O)/C=C/[C@H]1[C@H](O)CC(=O)[C@@H]1CCCCCCC(=O)O [PGE1, prostaglandin E1] the “new bone growth / bone anabolic effect (in words)” value (rat mandible; 24 days) was “negligible”.
With C[C@@H]1C[C@H]2[C@@H]3CCC4=CC(=O)C=C[C@]4(C)[C@@]3(F)[C@@H](O)C[C@]2(C)[C@@]1(O)C(=O)CO [dexamethasone] the “aqueous solubility as a function of the concentration of ALN-CD” value ([2]; ALN-CD 0 to 10 mM, 25° C., 3 days) was “increases”, the “apparent 1:1 stability constant Kc” value ([2]; complex with ALN-CD, water, 25° C.) was 2570 M⁻¹ and the “solubility diagram type according to Higuchi and Connors” value ([2]; with ALN-CD) was “AL type”.
With hydroxypropyl(HP)-β-CD [HP-β-CD] the “New Bone Area (mm^2 ± SEM)” value (rat mandible; 24 days) was 0.25 ± 0.08 mm^2, the “New Bone Width-1 (mm ± SEM)” value (rat mandible; 24 days) was 0.05 ± 0.02 mm and the “New Bone Width-3 (mm ± SEM)” value (rat mandible; 24 days) was 0.19 ± 0.11 mm. For the same compound, the “increase in new bone width” value (rat mandible; [4]) was 0.07±0.10 mm and the “percentage of osteoblasts on the lateral periosteal surface” value (rat mandible; [4]) was 7.3%.
